The structures appear in SMILES notation. pIC50: −log10 of the molar value.

The experiment addresses T1, chicken gizzard smooth muscle myosin subfragment-1 chemically crosslinked to cardiac or skeletal actin (Gallus gallus, UniProt P10587).
T1 construct: chicken gizzard smooth muscle myosin subfragment-1; from tissue; host or cells: chicken gizzard
In words: Smooth muscle myosin ATPase dose response assay (pyruvate kinase/horseradish peroxidase/pyruvate oxidase-coupled, amplex red fluorescence). The experiment is classed as biochemical. The following applies: read-out: IC50 Arithmetic Mean. In short, it runs like this:
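EDC/NHS-crosslinked S1–actin, amount set per prep by rate titration. Buffer: 12 mM K-PIPES pH 7.00 (22° C), 100 mM KCl, 2 mM MgCl2, 0.15 mM ATP, 0.1 mM PEP, 2 mM KPi, 0.1 mM amplex red. Read ex 480/em 615 nm; IC50 = midpoint, 4-param Hill fit.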

T1 sequence (P02607 2-151): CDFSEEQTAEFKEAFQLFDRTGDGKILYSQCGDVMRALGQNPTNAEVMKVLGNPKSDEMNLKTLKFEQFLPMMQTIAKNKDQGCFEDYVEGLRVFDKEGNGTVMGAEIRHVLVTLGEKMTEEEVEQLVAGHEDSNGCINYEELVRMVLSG
T1 sequence (P10587 84-789): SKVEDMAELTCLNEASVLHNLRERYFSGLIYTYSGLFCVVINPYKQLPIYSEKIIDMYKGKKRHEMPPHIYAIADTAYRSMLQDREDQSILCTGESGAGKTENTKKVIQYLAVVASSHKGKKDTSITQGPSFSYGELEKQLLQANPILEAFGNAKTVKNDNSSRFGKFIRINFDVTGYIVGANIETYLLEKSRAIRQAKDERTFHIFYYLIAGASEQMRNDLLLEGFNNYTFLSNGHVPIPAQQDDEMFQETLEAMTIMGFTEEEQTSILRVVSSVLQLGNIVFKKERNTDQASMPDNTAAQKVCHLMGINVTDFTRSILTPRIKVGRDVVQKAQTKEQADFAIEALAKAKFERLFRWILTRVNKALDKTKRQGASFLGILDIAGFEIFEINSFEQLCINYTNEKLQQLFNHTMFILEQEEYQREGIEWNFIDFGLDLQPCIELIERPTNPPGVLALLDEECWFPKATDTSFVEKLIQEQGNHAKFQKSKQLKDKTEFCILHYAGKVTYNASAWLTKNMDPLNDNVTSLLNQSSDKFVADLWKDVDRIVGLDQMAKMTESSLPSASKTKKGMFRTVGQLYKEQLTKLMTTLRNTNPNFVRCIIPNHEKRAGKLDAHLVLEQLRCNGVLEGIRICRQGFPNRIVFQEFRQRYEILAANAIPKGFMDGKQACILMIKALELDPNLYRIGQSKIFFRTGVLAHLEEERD

Take `N#Cc1ccccc1-c1ccc(C(=O)NCC2CCCCCN2C(=O)CCN)c(NCCc2cccc(F)c2)n1` (centres unmarked) [N-{[1-(3-aminopropanoyl)azaperhydroepin-2-yl]methyl}(6-(2-cyanophenyl)-2-{[2-(3-fluorophenyl)ethyl]amino}(3-pyridyl))carboxamide]: the pIC50 was 6.59. For the molecule `N#Cc1ccccc1-c1ccc(C(=O)NCC2CCN(C(=O)CCN)C2)c(NCCc2cccc(F)c2)n1` (centres unmarked) [N-{[1-(3-aminopropanoyl)pyrrolidin-3-yl]methyl}(6-(2-cyanophenyl)-2-{[2-(3-fluorophenyl)ethyl]amino}(3-pyridyl))carboxamide], the pIC50 was 6.57.

Regarding `Cn1cc(-c2ccc(C(=O)NCC3CCN(CCCN)C3=O)c(NCCc3cccc(F)c3)n2)cn1` (centres unmarked) [N-{[1-(3-aminopropyl)-2-oxopyrrolidin-3-yl]methyl}(2-{[2-(3-fluorophenyl)ethyl]amino}-6-(1-methylpyrazol-4-yl)(3-pyridyl))carboxamide], the pIC50 was 5.26. As to `NCCCN1CCC(CNC(=O)c2ccc(-c3cn[nH]c3)nc2NCCc2cccc(F)c2)C1=O` (centres unmarked) [N-{[1-(3-aminopropyl)-2-oxopyrrolidin-3-yl]methyl}(2-{[2-(3-fluorophenyl)ethyl]amino}-6-pyrazol-4-yl(3-pyridyl))carboxamide], the pIC50 is 5.51. To `N#Cc1ccccc1-c1ccc(C(=O)NCC2CCN(CCCN)C2=O)c(NCCc2cccc(F)c2)n1` (centres unmarked) [N-{[1-(3-aminopropyl)-2-oxopyrrolidin-3-yl]methyl}(6-(2-cyanophenyl)-2-{[2-(3-fluorophenyl)ethyl]amino}(3-pyridyl))carboxamide] belongs 6.42.

`N#Cc1ccccc1-c1ccc(C(=O)NCC2CCCC(=O)N2CCCN)c(NCCc2cccc(F)c2)n1` (centres unmarked) [N-{[1-(3-aminopropyl)-6-oxo(2-piperidyl)]methyl}(6-(2-cyanophenyl)-2-{[2-(3-fluorophenyl)ethyl]amino}(3-pyridyl))carboxamide]: the pIC50 was 7.60. In the case of `N#Cc1ccccc1-c1ccc(C(=O)NCC2CCCCC(=O)N2CCCN)c(NCCc2cccc(F)c2)n1` (centres unmarked) [N-{[1-(3-aminopropyl)-7-oxoazaperhydroepin-2-yl]methyl}(6-(2-cyanophenyl)-2-{[2-(3-fluorophenyl)ethyl]amino}(3-pyridyl))carboxamide], the pIC50 was 6.56. To `Cn1cc(-c2ccc(C(=O)NCc3ccn(CCCN)n3)c(NCCc3cccc(F)c3)n2)cn1` [N-{[1-(3-aminopropyl)pyrazol-3-yl]methyl}(2-{[2-(3-fluorophenyl)ethyl]amino}-6-(1-methylpyrazol-4-yl)(3-pyridyl))carboxamide] belongs 5.57; to `NCCCn1ccc(CNC(=O)c2ccc(-c3cc[nH]n3)nc2NCCc2cccc(F)c2)n1` [N-{[1-(3-aminopropyl)pyrazol-3-yl]methyl}(2-{[2-(3-fluorophenyl)ethyl]amino}-6-pyrazol-3-yl(3-pyridyl))carboxamide], 5.42; to `NCCCn1ccc(CNC(=O)c2ccc(-c3cn[nH]c3)nc2NCCc2cccc(F)c2)n1` [N-{[1-(3-aminopropyl)pyrazol-3-yl]methyl}(2-{[2-(3-fluorophenyl)ethyl]amino}-6-pyrazol-4-yl(3-pyridyl))carboxamide], 5.85. Regarding `N#Cc1ccccc1-c1ccc(C(=O)NCc2ccn(CCCN)n2)c(NCCc2cccc(F)c2)n1` [N-{[1-(3-aminopropyl)pyrazol-3-yl]methyl}(6-(2-cyanophenyl)-2-{[2-(3-fluorophenyl)ethyl]amino}(3-pyridyl))carboxamide], the pIC50 is 7.19. For `Cn1cc(-c2ccc(C(=O)NCc3ccnn3CCCN)c(NCCc3cccc(F)c3)n2)cn1` [N-{[1-(3-aminopropyl)pyrazol-5-yl]methyl}(2-{[2-(3-fluorophenyl)ethyl]amino}-6-(1-methylpyrazol-4-yl)(3-pyridyl))carboxamide], the pIC50 was 6.64. As for `NCCCn1nccc1CNC(=O)c1ccc(-c2cc[nH]n2)nc1NCCc1cccc(F)c1` [N-{[1-(3-aminopropyl)pyrazol-5-yl]methyl}(2-{[2-(3-fluorophenyl)ethyl]amino}-6-pyrazol-3-yl(3-pyridyl))carboxamide], the figure is 6.34; as for `NCCCn1nccc1CNC(=O)c1ccc(-c2cn[nH]c2)nc1NCCc1cccc(F)c1` [N-{[1-(3-aminopropyl)pyrazol-5-yl]methyl}(2-{[2-(3-fluorophenyl)ethyl]amino}-6-pyrazol-4-yl(3-pyridyl))carboxamide], 7.02; as for `N#Cc1ccccc1-c1ccc(C(=O)NCC2CCN(CCCN)C2)c(NCCc2cccc(F)c2)n1` (centres unmarked) [N-{[1-(3-aminopropyl)pyrrolidin-3-yl]methyl}(6-(2-cyanophenyl)-2-{[2-(3-fluorophenyl)ethyl]amino}(3-pyridyl))carboxamide], 5.32.

`N#Cc1ccccc1-c1ccc(C(=O)NCC2CCN(C(=O)CCCN)CC2)c(NCCc2cccc(F)c2)n1` [N-{[1-(4-aminobutanoyl)(4-piperidyl)]methyl}(6-(2-cyanophenyl)-2-{[2-(3-fluorophenyl)ethyl]amino}(3-pyridyl))carboxamide]: the pIC50 is 5.22. With `N#Cc1ccccc1-c1ccc(C(=O)NCC2CCCCCN2C(=O)CCCN)c(NCCc2cccc(F)c2)n1` (centres unmarked) [N-{[1-(4-aminobutanoyl)azaperhydroepin-2-yl]methyl}(6-(2-cyanophenyl)-2-{[2-(3-fluorophenyl)ethyl]amino}(3-pyridyl))carboxamide], the pIC50 is 6.42. For `N#Cc1ccccc1-c1ccc(C(=O)NCC2CCN(C(=O)CCCN)C2)c(NCCc2cccc(F)c2)n1` (centres unmarked) [N-{[1-(4-aminobutanoyl)pyrrolidin-3-yl]methyl}(6-(2-cyanophenyl)-2-{[2-(3-fluorophenyl)ethyl]amino}(3-pyridyl))carboxamide], the pIC50 is 6.36.

As to `CS(=O)(=O)N1CCCC(CNC(=O)c2ccc(-c3ccccc3)nc2NCCc2ccccn2)C1` (centres unmarked) [N-{[1-(methylsulfonyl)(3-piperidyl)]methyl}{6-phenyl-2-[(2-(2-pyridyl)ethyl)amino](3-pyridyl)}carboxamide], the negative logarithm of the IC50 (pIC50) is 4.69. In the case of `CC(=O)NCC1CCCCN1C(=O)c1ccc(-c2ccccc2)nc1NCCc1ccccn1` (centres unmarked) [N-{[1-({6-phenyl-2-[(2-(2-pyridyl)ethyl)amino]-3-pyridyl}carbonyl)-2-piperidyl]methyl}acetamide], the pIC50 was 4.67. As for `N#Cc1ccccc1-c1ccc(C(=O)NCc2cccnc2CCN)c(NCCc2cccc(F)c2)n1` [N-{[2-(2-aminoethyl)(3-pyridyl)]methyl}(6-(2-cyanophenyl)-2-{[2-(3-fluorophenyl)ethyl]amino}(3-pyridyl))carboxamide], the figure is 8.22; as for `Cc1cc(C(=O)NCc2cccnc2CN)c(NCCc2cccc(F)c2)nc1-c1cnn(C)c1` [N-{[2-(aminomethyl)(3-pyridyl)]methyl}(2-{[2-(3-fluorophenyl)ethyl]amino}-5-methyl-6-(1-methylpyrazol-4-yl)(3-pyridyl))carboxamide], 6.89; as for `Cn1ccc(-c2ccc(C(=O)NCc3cccnc3CN)c(NCCc3cccc(F)c3)n2)n1` [N-{[2-(aminomethyl)(3-pyridyl)]methyl}(2-{[2-(3-fluorophenyl)ethyl]amino}-6-(1-methylpyrazol-3-yl)(3-pyridyl))carboxamide], 7.49.

In the case of `NCc1ncccc1CNC(=O)c1ccc(-c2cnn(CCO)c2)nc1NCCc1cccc(F)c1` [N-{[2-(aminomethyl)(3-pyridyl)]methyl}(2-{[2-(3-fluorophenyl)ethyl]amino}-6-[1-(2-hydroxyethyl)pyrazol-4-yl](3-pyridyl))carboxamide], the pIC50 was 6.15. To `NCc1ncccc1CNC(=O)c1ccc(-c2ccccc2)nc1NCCc1cccc(F)c1` [N-{[2-(aminomethyl)(3-pyridyl)]methyl}(2-{[2-(3-fluorophenyl)ethyl]amino}-6-phenyl(3-pyridyl))carboxamide] belongs 8.10. As to `NCc1ncccc1CNC(=O)c1ccc(-c2cc[nH]n2)nc1NCCc1cccc(F)c1` [N-{[2-(aminomethyl)(3-pyridyl)]methyl}(2-{[2-(3-fluorophenyl)ethyl]amino}-6-pyrazol-3-yl(3-pyridyl))carboxamide], the pIC50 is 7.37. `NCc1ncccc1CNC(=O)c1ccc(-c2cn[nH]c2)nc1NCCc1cccc(F)c1` [N-{[2-(aminomethyl)(3-pyridyl)]methyl}(2-{[2-(3-fluorophenyl)ethyl]amino}-6-pyrazol-4-yl(3-pyridyl))carboxamide]: the pIC50 was 7.62. To `Cn1cc(-c2nc(NCCc3cccc(F)c3)c(C(=O)NCc3cccnc3CN)cc2Cl)cn1` [N-{[2-(aminomethyl)(3-pyridyl)]methyl}(5-chloro-2-{[2-(3-fluorophenyl)ethyl]amino}-6-(1-methylpyrazol-4-yl)(3-pyridyl))carboxamide] belongs 7.52. As for `Cn1cc(-c2nc(NCCc3cccc(F)c3)c(C(=O)NCc3cccnc3CN)cc2C#N)cn1` [N-{[2-(aminomethyl)(3-pyridyl)]methyl}(5-cyano-2-{[2-(3-fluorophenyl)ethyl]amino}-6-(1-methylpyrazol-4-yl)(3-pyridyl))carboxamide], the figure is 7.30; as for `N#Cc1cc(C(=O)NCc2cccnc2CN)c(NCCc2cccc(F)c2)nc1-c1cn[nH]c1` [N-{[2-(aminomethyl)(3-pyridyl)]methyl}(5-cyano-2-{[2-(3-fluorophenyl)ethyl]amino}-6-pyrazol-4-yl(3-pyridyl))carboxamide], 7.24. As for `Cn1cc(-c2nc(NCCc3cccc(F)c3)c(C(=O)NCc3cccnc3CN)cc2F)cn1` [N-{[2-(aminomethyl)(3-pyridyl)]methyl}(5-fluoro-2-{[2-(3-fluorophenyl)ethyl]amino}-6-(1-methylpyrazol-4-yl)(3-pyridyl))carboxamide], the figure is 7.92. Consider `NCc1ncccc1CNC(=O)c1cc(F)c(-c2ccccn2)nc1NCCc1cccc(F)c1` [N-{[2-(aminomethyl)(3-pyridyl)]methyl}(5-fluoro-2-{[2-(3-fluorophenyl)ethyl]amino}-6-(2-pyridyl)(3-pyridyl))carboxamide], for which the negative logarithm of the IC50 (pIC50) was 7.18.

As a reminder, the pIC50 is the IC50 on a negative log10 scale, so that one unit is a factor of ten.

The values are drawn from patent US7932270B2 (Cytokinetics, Inc., priority 2006, dated 2011).
